This assay concerns the target Human TRPA1 (Homo sapiens, UniProt O75762). Briefly: Assay 1: In vitro cellular testing of TRPA1 modulation (CHO-TREx, Fluo-3 calcium fluorescence, AITC agonist). Type of assay: cell-based. On the set-up: expressed in transfected cells; host or cells: CHO-TREx cells (Invitrogen), vector pcDNA4/TO. As to conditions: CHO-TREx cells expressing human TRPA1; Fluo-3 fluorescence (FLIPR/Tetra); agonist 15 μM allyl isothiocyanate (AITC); 30 minute antagonist incubation. Put shortly:
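Tetracycline-induced CHO-TREx cells stably expressing human TRPA1, loaded with 4 μM Fluo-3 AM, preincubated 30 min with compound (serial dilution typically from 10 μM, three-fold steps) in HEPES saline pH 7.4. Fluorescence change over 3 min after 15 μM AITC; IC50 from Hill fit versus no-antagonist and 10 μM ruthenium red controls.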

Human TRPA1, sequence (O75762 whole entry): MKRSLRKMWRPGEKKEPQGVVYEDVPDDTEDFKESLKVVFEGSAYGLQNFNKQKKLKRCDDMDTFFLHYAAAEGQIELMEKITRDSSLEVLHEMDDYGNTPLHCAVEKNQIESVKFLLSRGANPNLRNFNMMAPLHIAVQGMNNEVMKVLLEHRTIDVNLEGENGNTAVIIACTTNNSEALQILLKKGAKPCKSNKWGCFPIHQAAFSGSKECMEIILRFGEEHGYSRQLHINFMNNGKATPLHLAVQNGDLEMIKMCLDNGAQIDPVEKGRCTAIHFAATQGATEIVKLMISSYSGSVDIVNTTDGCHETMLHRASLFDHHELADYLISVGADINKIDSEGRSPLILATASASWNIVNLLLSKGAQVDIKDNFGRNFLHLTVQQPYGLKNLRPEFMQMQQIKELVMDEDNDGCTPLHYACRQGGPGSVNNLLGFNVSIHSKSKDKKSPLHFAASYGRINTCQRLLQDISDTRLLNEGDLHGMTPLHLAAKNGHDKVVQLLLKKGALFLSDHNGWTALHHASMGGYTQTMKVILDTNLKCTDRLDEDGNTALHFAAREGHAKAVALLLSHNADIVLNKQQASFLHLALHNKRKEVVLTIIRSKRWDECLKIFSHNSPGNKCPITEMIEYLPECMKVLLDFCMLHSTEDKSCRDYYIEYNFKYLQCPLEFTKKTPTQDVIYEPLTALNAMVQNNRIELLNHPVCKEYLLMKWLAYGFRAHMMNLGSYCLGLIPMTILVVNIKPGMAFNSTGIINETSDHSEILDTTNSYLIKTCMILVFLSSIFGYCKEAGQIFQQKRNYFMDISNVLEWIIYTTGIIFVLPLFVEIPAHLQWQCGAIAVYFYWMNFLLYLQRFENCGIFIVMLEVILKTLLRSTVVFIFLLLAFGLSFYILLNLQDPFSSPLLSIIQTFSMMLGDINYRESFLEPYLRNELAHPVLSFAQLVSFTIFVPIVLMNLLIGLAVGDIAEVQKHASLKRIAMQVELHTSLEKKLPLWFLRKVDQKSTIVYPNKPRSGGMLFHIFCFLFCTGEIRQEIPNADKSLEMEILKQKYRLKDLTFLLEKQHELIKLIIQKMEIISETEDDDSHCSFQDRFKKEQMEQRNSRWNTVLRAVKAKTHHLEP

Broadly, the IC50 is the concentration that inhibits the measured activity by half. Regarding `O=C(NCc1cc(-c2ccc(C(F)(F)F)cc2)ncn1)[C@@H]1CCCN1S(=O)(=O)c1ccc(Br)cc1` [Example 147, 1-(4-Bromobenzenesulfonyl)-pyrrolidine-2S-carboxylic acid [6-(4-trifluoromethylphenyl)-pyrimidin-4-ylmethyl]-amide], the IC50 came out at 0.092 µM.
In the case of `O=C(NCc1cc(-c2ccc(C(F)(F)F)cc2)ncn1)[C@@H]1CCCN1S(=O)(=O)c1ccc(F)c(F)c1` [Example 148, 1-(3,4-Difluorobenzenesulfonyl)-pyrrolidine-2S-carboxylic acid [6-(4-trifluoromethylphenyl)-pyrimidin-4-ylmethyl]-amide] it was 0.028 µM; in that of `O=C(NCc1cc(-c2ccc(C(F)(F)F)cc2)ncn1)[C@@H]1CCCN1S(=O)(=O)c1ccc(OC(F)(F)F)cc1` [Example 149, 1-(4-Trifluoromethoxybenzenesulfonyl)-pyrrolidine-2S-carboxylic acid [6-(4-trifluoromethylphenyl)-pyrimidin-4-ylmethyl]-amide], 3.65 µM; in that of `COc1ccc(S(=O)(=O)N2CCC[C@H]2C(=O)NCc2cc(-c3ccc(C(F)(F)F)cc3)ncn2)cc1` [Example 150, 1-(4-Methoxybenzenesulfonyl)-pyrrolidine-2S-carboxylic acid [6-(4-trifluoromethylphenyl)-pyrimidin-4-ylmethyl]-amide], 0.383 µM.
In the case of `O=C(NCc1cc(-c2ccc(C(F)(F)F)cc2)ncn1)[C@@H]1CCCN1S(=O)(=O)c1ccc(Cl)cc1` [Example 152, 1-(4-Chlorobenzenesulfonyl)-pyrrolidine-2S-carboxylic acid [6-(4-trifluoromethyl-Phenyl)-pyrimidin-4-ylmethyl]-amide] it was 0.066 µM.
In the case of `O=C(NCc1cc(-c2ccc(C(F)(F)F)cc2)ncn1)[C@@H]1CCCN1S(=O)(=O)c1ccccc1F` [Example 153, 1-(2-Fluorobenzenesulfonyl)-pyrrolidine-2S-carboxylic acid [6-(4-trifluoromethylphenyl)-pyrimidin-4-ylmethyl]-amide] it was 0.401 µM; in that of `O=C(NCc1cc(-c2ccc(C(F)(F)F)cc2)ncn1)[C@@H]1CCCN1S(=O)(=O)c1cccc(F)c1` [Example 154, 1-(3-Fluorobenzenesulfonyl)-pyrrolidine-2S-carboxylic acid [6-(4-trifluoromethylphenyl)-pyrimidin-4-ylmethyl]-amide], 0.044 µM; in that of `Cc1ccccc1S(=O)(=O)N1CCC[C@H]1C(=O)NCc1cc(-c2ccc(C(F)(F)F)cc2)ncn1` [Example 155, 1-(Toluene-2-sulfonyl)-pyrrolidine-2S-carboxylic acid [6-(4-trifluoromethylphenyl)-pyrimidin-4-ylmethyl]-amide], 1.02 µM.
In the case of `Cc1cccc(S(=O)(=O)N2CCC[C@H]2C(=O)NCc2cc(-c3ccc(C(F)(F)F)cc3)ncn2)c1` [Example 156, 1-(Toluene-3-sulfonyl)-pyrrolidine-2S-carboxylic acid [6-(4-trifluoromethylphenyl)-pyrimidin-4-ylmethyl]-amide], the half-inhibitory concentration (IC50) was determined as 0.388 µM.
In the case of `O=C(NCc1cc(-c2ccc(C(F)(F)F)cc2)ncn1)[C@@H]1CCCN1S(=O)(=O)c1cccc(C(F)(F)F)c1` [Example 157, 1-(3-Trifluoromethylbenzenesulfonyl)-pyrrolidine-2S-carboxylic acid [6-(4-trifluoromethylphenyl)-pyrimidin-4-ylmethyl]-amide] it was 4.69 µM; in that of `O=C(NCc1cc(-c2ccc(C(F)(F)F)cc2)ncn1)[C@@H]1CCCN1S(=O)(=O)c1ccc(C(F)(F)F)cc1` [Example 158, 1-(4-Trifluoromethylbenzenesulfonyl)-pyrrolidine-2S-carboxylic acid [6-(4-trifluoromethylphenyl)-pyrimidin-4-ylmethyl]-amide], 0.587 µM.
In the case of `N#Cc1ccc(S(=O)(=O)N2CCC[C@H]2C(=O)NCc2cc(-c3ccc(C(F)(F)F)cc3)ncn2)cc1` [Example 159, 1-(4-Cyanobenzenesulfonyl)-pyrrolidine-2S-carboxylic acid [6-(4-trifluoromethylphenyl)-pyrimidin-4-ylmethyl]-amide] it was 1.09 µM; in that of `O=C(NCc1cc(-c2ccc(C(F)(F)F)cc2)ncn1)[C@@H]1CCCN1S(=O)(=O)c1ccccc1` [Example 160, 1-Benzenesulfonylpyrrolidine-2S-carboxylic acid [6-(4-trifluoromethylphenyl)-pyrimidin-4-ylmethyl]-amide], 0.077 µM.
As for `Cc1ccc(S(=O)(=O)N2CCC[C@H]2C(=O)NCc2cc(-c3ccc(C(F)(F)F)cc3)ncn2)cc1` [Example 161, 1-(Toluene-4-sulfonyl)-pyrrolidine-2S-carboxylic acid [6-(4-trifluoromethylphenyl)-pyrimidin-4-ylmethyl]-amide], the IC50 came to 0.137 µM.
As for `CC(=O)c1ccc(S(=O)(=O)N2CCC[C@H]2C(=O)NCc2cc(-c3ccc(C(F)(F)F)cc3)ncn2)cc1` [Example 162, 1-(4-Acetylbenzenesulfonyl)-pyrrolidine-2S-carboxylic acid [6-(4-trifluoromethylphenyl)-pyrimidin-4-ylmethyl]-amide], the IC50 turned out to be 1.7 µM.
In the case of `O=C(NCc1cc(-c2ccc(C(F)(F)F)cc2)ncn1)[C@@H]1CCCN1S(=O)(=O)c1ccc([N+](=O)[O-])cc1` [Example 163, 1-(4-Nitrobenzenesulfonyl)-pyrrolidine-2S-carboxylic acid [6-(4-trifluoromethylphenyl)-pyrimidin-4-ylmethyl]-amide] it was 0.014 µM.
`O=C(NCc1cc(-c2ccc(C(F)(F)F)cc2)ncn1)[C@@H]1CCCN1S(=O)(=O)c1cc(Cl)c(Cl)s1` [Example 165, 1-(4,5-Dichlorothiophene-2-sulfonyl)-pyrrolidine-2S-carboxylic acid [6-(4-trifluoromethylphenyl)-pyrimidin-4-ylmethyl]-amide]: the IC50 is 0.011 µM.
For `O=C(NCc1cc(-c2ccc(C(F)(F)F)cc2)ncn1)[C@@H]1CCCN1S(=O)(=O)c1ccc(Cl)s1` [Example 166, 1-(5-Chlorothiophene-2-sulfonyl)-pyrrolidine-2S-carboxylic acid [6-(4-trifluoromethylphenyl)-pyrimidin-4-ylmethyl]-amide], the IC50 worked out at 0.014 µM.
In the case of `O=C(NCc1cc(-c2ccc(C(F)(F)F)cc2)ncn1)[C@@H]1CCCN1S(=O)(=O)c1ccco1` [Example 167, 1-(Furan-2-sulfonyl)-pyrrolidine-2S-carboxylic acid [6-(4-trifluoromethylphenyl)-pyrimidin-4-ylmethyl]-amide] it was 0.063 µM.
`O=C(NCc1cc(-c2ccc(C(F)(F)F)cc2)ncn1)[C@@H]1CCCN1S(=O)(=O)c1cc(F)cc(F)c1` [Example 169, 1-(3,5-Difluorobenzenesulfonyl)-pyrrolidine-2S-carboxylic acid [6-(4-trifluoromethylphenyl)-pyrimidin-4-ylmethyl]-amide]: the half-inhibitory concentration (IC50) is 0.051 µM.
For `O=C(NCc1cc(-c2ccc(C(F)(F)F)cc2)ncn1)[C@@H]1CCCN1S(=O)(=O)c1cccs1` [Example 170, 1-(Thiophene-2-sulfonyl)-pyrrolidine-2S-carboxylic acid [6-(4-trifluoromethylphenyl)-pyrimidin-4-ylmethyl]-amide], the IC50 amounted to 0.02 µM.
In the case of `O=C(NCc1cccc(-c2ccc(Cl)cc2)c1)[C@@H]1CCCN1S(=O)(=O)c1ccc(F)cc1` [Example 171, 1-(4-Fluorobenzenesulfonyl)-pyrrolidine-2S-carboxylic acid (4′-chlorobiphenyl-3-ylmethyl)-amide] it was 0.019 µM.
In the case of `O=C(NCc1cc(-c2ccc(C(F)(F)F)cc2)ncn1)[C@@H]1CCCN1S(=O)(=O)c1ccsc1` [Example 172, 1-(Thiophene-3-sulfonyl)-pyrrolidine-2S-carboxylic acid [6-(4-trifluoromethyl-phenyl)-pyrimidin-4-ylmethyl]-amide] it was 0.011 µM; in that of `O=C(NCc1cc(-c2ccc(C(F)(F)F)cc2)ncn1)[C@@H]1CCCN1S(=O)(=O)c1cc(Cl)sc1Cl` [Example 173, 1-(2,5-Dichlorothiophene-3-sulfonyl)-pyrrolidine-2S-carboxylic acid [6-(4-trifluoromethylphenyl)-pyrimidin-4-ylmethyl]-amide], 1.15 µM.
Regarding `O=C(NCc1cc(-c2ccc(C(F)(F)F)cc2)ncn1)[C@@H]1CCCN1S(=O)(=O)c1ccc(Cl)nc1` [Example 174, 1-(6-Chloropyridine-3-sulfonyl)-pyrrolidine-2S-carboxylic acid [6-(4-trifluoromethylphenyl)-pyrimidin-4-ylmethyl]-amide], the IC50 is 0.095 µM.
For `O=C(NCc1cc(-c2ccc(C(F)(F)F)cc2)ncn1)[C@@H]1CCCN1S(=O)(=O)c1ccoc1` [Example 176, 1-(Furan-3-sulfonyl)-pyrrolidine-2S-carboxylic acid [6-(4-trifluoromethylphenyl)-pyrimidin-4-ylmethyl]-amide], the 50% inhibitory concentration (IC50) worked out at 0.045 µM.
In the case of `O=C(NCc1cc(-c2ccc(OC(F)(F)F)cc2)ncn1)[C@@H]1CCCN1S(=O)(=O)c1ccc(F)cc1` [Example 177, 1-(4-Fluorobenzenesulfonyl)-pyrrolidine-2S-carboxylic acid [6-(4-trifluoromethoxyphenyl)-pyrimidin-4-ylmethyl]-amide] it was 0.071 µM; in that of `O=C(NCc1cc(-c2ccc(C(F)(F)F)nc2)ncn1)[C@@H]1CCCN1S(=O)(=O)c1ccc(F)cc1` [Example 178, 1-(4-Fluoro-benzenesulfonyl)-pyrrolidine-2S-carboxylic acid [6-(6-trifluoromethyl-pyridin-3-yl)-pyrimidin-4-ylmethyl]-amide], 0.203 µM.

For the origin of these results see patent US8614201B2 (Janssen Pharmaceutica NV, priority 2009, dated 2013).
